Earlier results as cited in patent US20080194655A1, “ZERO ORDER CONTROLLED RELEASE COMPOSITIONS OF TIZANIDINE” (priority 2007, published 2008).

Tested on: cognitive function (attention)
Settings: doses of 0.5-0.7 g/kg alcohol

peak impairment (decrement) in Power of Attention compared to baseline: about 150 msec
SMILES: CCO [alcohol]
